IC50 data for ten compounds are collected here from patent US12060347B2 (BRISTOL-MYERS SQUIBB COMPANY, priority 2016, dated 2024).

The assay addresses T1, human PAR4 (Homo sapiens, UniProt Q96RI0).
T1 construct: expressed in transfected cells; host or cells: HEK293 PAR4 Clone 1.2A (BMS Arctic ID 383940)
T1 sequence (Q96RI0 18-385): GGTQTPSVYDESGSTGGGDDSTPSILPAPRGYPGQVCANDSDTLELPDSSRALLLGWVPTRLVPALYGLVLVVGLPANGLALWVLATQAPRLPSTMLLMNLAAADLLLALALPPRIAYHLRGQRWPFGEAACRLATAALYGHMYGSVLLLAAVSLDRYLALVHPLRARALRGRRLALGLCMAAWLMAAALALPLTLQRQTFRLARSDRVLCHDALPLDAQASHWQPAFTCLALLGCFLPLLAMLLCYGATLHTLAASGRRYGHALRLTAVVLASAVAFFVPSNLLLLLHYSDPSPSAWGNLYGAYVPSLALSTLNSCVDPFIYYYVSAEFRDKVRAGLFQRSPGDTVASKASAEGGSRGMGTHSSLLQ
Briefly: PAR4 FLIPR assay: antagonism of agonist-peptide-induced calcium mobilization in PAR4-expressing HEK293 cells. Format: cell-based. The conditions noted are these: H-Ala-Phe(4-F)-[…]NH2-induced intracellular calcium mobilization, 11-point curves.

With `CNC(=O)c1ccc(NC(=O)O[C@H](C)COc2cc3sc(-c4cc(C)cc5nc(OC)cnc45)nc3cc2F)cn1` [Example 432, (R)-1-((5-fluoro-2-(2-methoxy-7-methylquinoxalin-5-yl)benzo[d]thiazol-6-yl)oxy)propan-2-yl (6-(methylcarbamoyl)pyridin-3-yl)carbamate], the IC50 was 0.4 nM.
As to `COc1cnc2c(-c3nc4cc(F)c(OC[C@@H](C)OC(=O)Nc5ccc(C(N)=O)nc5)cc4s3)cc(C)cc2n1` [Example 433, (R)-1-((5-fluoro-2-(2-methoxy-7-methylquinoxalin-5-yl)benzo[d]thiazol-6-yl)oxy)propan-2-yl (6-carbamoylpyridin-3-yl)carbamate], the IC50 was 0.6 nM.
For `COc1cnc2c(-c3nc4cc(F)c(OC[C@@H](C)OC(=O)Nc5ccc(C(N)=O)nc5)cc4s3)cc(C)cc2n1` [Example 434, (R)-1-((5-fluoro-2-(2-methoxy-7-methylquinoxalin-5-yl)benzo[d]thiazol-6-yl)oxy)propan-2-yl (6-carbamoylpyridin-3-yl)carbamate], the IC50 came out at 1.4 nM.
With `COc1cnc2c(-c3nc4cc(F)c(OC[C@@H](C)OC(=O)Nc5ccc(C(=O)N6CCOCC6)nc5)cc4s3)cc(C)cc2n1` [Example 435, (R)-1-((5-fluoro-2-(2-methoxy-7-methylquinoxalin-5-yl)benzo[d]thiazol-6-yl)oxy)propan-2-yl (6-(morpholine-4-carbonyl)pyridin-3-yl)carbamate] the figure was 0.9 nM.
As for `CNC(=O)c1ccc(NC(=O)O[C@H](C)[C@H](C)Oc2cc3sc(-c4cc(C)cc5nc(OC)cnc45)nc3cc2F)cn1` [Example 436, (2R,3S)-3-((5-fluoro-2-(2-methoxy-7-methylquinoxalin-5-yl)benzo[d]thiazol-6-yl)oxy)butan-2-yl (6-(methylcarbamoyl)pyridin-3-yl)carbamate], the IC50 came out at 1.5 nM.
As for `COc1cnc2c(-c3nc4cc(F)c(O[C@@H](C)[C@@H](C)OC(=O)Nc5cnc(C(=O)N6CCOCC6)nc5)cc4s3)cc(C)cc2n1` [Example 437, (2R,3S)-3-((5-fluoro-2-(2-methoxy-7-methylquinoxalin-5-yl)benzo[d]thiazol-6-yl)oxy)butan-2-yl (2-(morpholine-4-carbonyl)pyrimidin-5-yl)carbamate], the figure is 4.9 nM; as for `COc1cnc2c(-c3nc4cc(F)c(O[C@@H](C)[C@@H](C)OC(=O)Nc5ccc(C(=O)N(C)C)nc5)cc4s3)cc(C)cc2n1` [Example 438, (2R,3S)-3-((5-fluoro-2-(2-methoxy-7-methylquinoxalin-5-yl)benzo[d]thiazol-6-yl)oxy)butan-2-yl (6-(dimethylcarbamoyl)pyridin-3-yl)carbamate], 1.9 nM.
With `COc1cnc2c(-c3nc4cc(F)c(O[C@@H](C)[C@@H](C)OC(=O)Nc5ccc(C(=O)NC[C@@H](C)O)nc5)cc4s3)cc(C)cc2n1` [Example 439, (2R,3S)-3-((5-fluoro-2-(2-methoxy-7-methylquinoxalin-5-yl)benzo[d]thiazol-6-yl)oxy)butan-2-yl (6-(((R)-2-hydroxypropyl)carbamoyl)pyridin-3-yl)carbamate] the figure was 0.9 nM; with `CNC(=O)c1ncc(NC(=O)O[C@H](C)[C@H](C)Oc2cc3sc(-c4cc(C)cc5nc(OC)cnc45)nc3cc2F)cn1` [Example 440, (2R,3S)-3-((5-fluoro-2-(2-methoxy-7-methylquinoxalin-5-yl)benzo[d]thiazol-6-yl)oxy)butan-2-yl (2-(methylcarbamoyl)pyrimidin-5-yl)carbamate], 0.8 nM.
Turning to `COc1cnc2c(-c3nc4cc(F)c(O[C@@H](C)[C@@H](C)OC(=O)Nc5ccc(C(=O)NC[C@H](C)O)nc5)cc4s3)cc(C)cc2n1` [Example 441, (2R,3S)-3-((5-fluoro-2-(2-methoxy-7-methylquinoxalin-5-yl)benzo[d]thiazol-6-yl)oxy)butan-2-yl (6-(((S)-2-hydroxypropyl)carbamoyl)pyridin-3-yl)carbamate], the IC50 was found to be 0.9 nM.
